# Measurements published in patent US10406146B2, “Heterocyclic compound” (TAKEDA PHARMACEUTICAL COMPANY LIMITED, priority 2015, dated 2019).
# Key:
# Assay type in all cases: biochemical
# HDAC6 enzyme = biological target: T1, HDAC6 enzyme (Homo sapiens, UniProt Q9UBN7); experiment: HDAC6 enzyme inhibitory assay (HDAC-Glo I/II Assay kit); conditions: wells without enzyme = 100% inhibition, read-out: HDAC6 inhibitory rate (%) (1 μM)
# T1 construct: transducing full length HDAC1 and HDAC6 genes into Sf-9 insect cells; GST; purchased SignalChem; host or cells: Sf-9 insect cells
# T1 sequence (Q9UBN7 1-1215): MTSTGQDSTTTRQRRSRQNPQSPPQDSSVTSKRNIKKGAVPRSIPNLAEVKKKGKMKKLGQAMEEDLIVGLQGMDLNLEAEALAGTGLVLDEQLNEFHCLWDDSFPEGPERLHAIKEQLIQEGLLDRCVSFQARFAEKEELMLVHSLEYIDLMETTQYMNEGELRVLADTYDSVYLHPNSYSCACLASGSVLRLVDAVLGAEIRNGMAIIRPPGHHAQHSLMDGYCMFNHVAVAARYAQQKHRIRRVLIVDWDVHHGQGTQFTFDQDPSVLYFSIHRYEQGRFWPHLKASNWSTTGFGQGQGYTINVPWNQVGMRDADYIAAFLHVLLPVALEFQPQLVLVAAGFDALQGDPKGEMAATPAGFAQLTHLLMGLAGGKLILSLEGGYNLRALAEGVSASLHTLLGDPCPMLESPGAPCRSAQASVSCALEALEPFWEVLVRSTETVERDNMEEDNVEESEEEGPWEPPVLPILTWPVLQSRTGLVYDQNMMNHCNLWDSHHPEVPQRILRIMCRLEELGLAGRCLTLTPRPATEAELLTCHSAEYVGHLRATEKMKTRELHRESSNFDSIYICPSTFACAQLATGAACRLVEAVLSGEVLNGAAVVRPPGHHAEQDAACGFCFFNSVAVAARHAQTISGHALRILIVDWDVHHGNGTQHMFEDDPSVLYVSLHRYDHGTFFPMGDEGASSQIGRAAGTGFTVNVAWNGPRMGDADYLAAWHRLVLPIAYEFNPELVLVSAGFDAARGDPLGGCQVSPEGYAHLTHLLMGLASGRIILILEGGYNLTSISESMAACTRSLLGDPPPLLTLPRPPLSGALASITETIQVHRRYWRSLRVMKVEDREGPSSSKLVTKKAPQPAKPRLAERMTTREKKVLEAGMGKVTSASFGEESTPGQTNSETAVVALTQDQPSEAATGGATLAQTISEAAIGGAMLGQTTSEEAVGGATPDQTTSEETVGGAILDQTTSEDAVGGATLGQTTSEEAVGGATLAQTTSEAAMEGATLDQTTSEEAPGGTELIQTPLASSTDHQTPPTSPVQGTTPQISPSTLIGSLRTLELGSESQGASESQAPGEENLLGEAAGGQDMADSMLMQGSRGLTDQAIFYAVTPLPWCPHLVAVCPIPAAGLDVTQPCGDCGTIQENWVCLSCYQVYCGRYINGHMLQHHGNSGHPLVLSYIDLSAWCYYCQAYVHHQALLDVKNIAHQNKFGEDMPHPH
# In short: (§1)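 Luminescence readout (HDAC-Glo I/II) after 20 min RT reaction of GST-purified full-length HDAC1 or HDAC6 (Sf-9 expressed) with substrate-developer; enzyme and compound preincubated 60 min RT; buffer 24 mM Tris-HCl pH 7.5, 0.6 mM glutathione, 0.01% Tween-20; no-enzyme wells = 100% inhibition.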
# HDAC9 enzyme = biological target: T2, HDAC9 enzyme (Homo sapiens, UniProt Q9UKV0); experiment: HDAC9 enzyme inhibitory assay (HDAC-Glo class IIa); conditions: wells without enzyme = 100% inhibition, read-out: HDAC9 inhibitory rate (%) (1 μM)
# T2 construct: transducing full length HDAC9 gene into Sf-9 insect cells; made in house; host or cells: Sf-9 insect cells
# In short: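 Full-length human HDAC9 from Sf-9 cells, Ni-NTA purified, preincubated with compound for 60 min at room temperature in Tris-HCl pH 7.5 buffer (MgCl2, KCl, NaCl, glutathione, Tween-20). HDAC-Glo class IIa substrate-developer added; luminescence read after 20 min, with no-enzyme wells defining 100% inhibition.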
# HDAC1 enzyme = biological target: T3, HDAC1 enzyme (Homo sapiens, UniProt Q13547); experiment: HDAC1 enzyme inhibitory assay (HDAC-Glo I/II Assay kit); conditions: wells without enzyme = 100% inhibition, read-out: HDAC1 inhibitory rate (%) (1 μM)
# T3 construct: transducing full length HDAC1 and HDAC6 genes into Sf-9 insect cells; GST; purchased SignalChem; host or cells: Sf-9 insect cells
# In short: as §1
# T2 sequence (Q9UKV0 whole entry, species assumed): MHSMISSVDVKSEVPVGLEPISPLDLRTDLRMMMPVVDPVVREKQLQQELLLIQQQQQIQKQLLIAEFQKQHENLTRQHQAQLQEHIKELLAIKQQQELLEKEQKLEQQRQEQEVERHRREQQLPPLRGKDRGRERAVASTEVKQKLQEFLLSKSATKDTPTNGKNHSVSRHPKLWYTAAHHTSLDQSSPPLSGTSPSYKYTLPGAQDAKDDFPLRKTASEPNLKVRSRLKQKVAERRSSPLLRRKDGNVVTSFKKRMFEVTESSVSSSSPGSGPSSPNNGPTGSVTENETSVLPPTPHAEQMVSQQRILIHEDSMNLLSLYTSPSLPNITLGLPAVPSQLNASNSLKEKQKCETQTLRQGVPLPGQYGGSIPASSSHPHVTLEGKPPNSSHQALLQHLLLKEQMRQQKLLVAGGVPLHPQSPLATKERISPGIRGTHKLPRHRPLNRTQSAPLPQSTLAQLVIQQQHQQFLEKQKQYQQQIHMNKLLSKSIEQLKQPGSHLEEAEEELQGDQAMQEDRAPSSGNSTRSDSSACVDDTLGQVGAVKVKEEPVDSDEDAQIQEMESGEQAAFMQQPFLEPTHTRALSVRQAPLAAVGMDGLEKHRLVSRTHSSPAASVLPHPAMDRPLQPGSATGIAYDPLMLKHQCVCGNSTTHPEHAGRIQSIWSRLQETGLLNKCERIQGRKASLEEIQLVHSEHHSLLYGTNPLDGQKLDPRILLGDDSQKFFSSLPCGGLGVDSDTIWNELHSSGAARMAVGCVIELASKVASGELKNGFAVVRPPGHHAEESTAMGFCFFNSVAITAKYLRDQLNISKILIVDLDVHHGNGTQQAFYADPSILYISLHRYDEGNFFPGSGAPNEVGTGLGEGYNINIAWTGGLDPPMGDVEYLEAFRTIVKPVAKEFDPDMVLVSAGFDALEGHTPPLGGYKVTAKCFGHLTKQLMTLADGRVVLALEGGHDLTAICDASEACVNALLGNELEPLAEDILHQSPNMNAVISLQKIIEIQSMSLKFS
# T3 sequence (Q13547 whole entry): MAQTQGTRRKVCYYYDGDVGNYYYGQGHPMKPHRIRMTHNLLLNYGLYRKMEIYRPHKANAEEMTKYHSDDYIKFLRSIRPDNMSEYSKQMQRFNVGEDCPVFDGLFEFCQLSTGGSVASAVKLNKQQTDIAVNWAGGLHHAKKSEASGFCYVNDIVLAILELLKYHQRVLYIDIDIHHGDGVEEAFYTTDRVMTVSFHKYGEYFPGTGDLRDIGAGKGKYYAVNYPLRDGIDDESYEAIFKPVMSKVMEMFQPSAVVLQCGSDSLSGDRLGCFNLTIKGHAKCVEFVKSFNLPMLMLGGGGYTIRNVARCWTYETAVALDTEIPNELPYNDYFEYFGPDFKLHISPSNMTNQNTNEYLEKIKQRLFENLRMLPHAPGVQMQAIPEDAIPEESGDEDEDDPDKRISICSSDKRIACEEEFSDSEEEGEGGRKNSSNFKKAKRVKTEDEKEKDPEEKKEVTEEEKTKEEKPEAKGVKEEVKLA
inhibition at 1 µM (HDAC6 enzyme) [%],inhibition at 1 µM (HDAC9 enzyme) [%],inhibition at 1 µM (HDAC1 enzyme) [%],Compound
2,68,-7,"O=C(NCC1CCCCN1C(=O)Nc1ccc(-c2noc(C(F)(F)F)n2)cc1)c1cccc(Cl)c1 (stereo not drawn) [Example 8, 2-(((3-chlorobenzoyl)amino)methyl)-N-(4-(5-(trifluoromethyl)-1,2,4-oxadiazol-3-yl)phenyl)piperidine-1-carboxamide]"
5,88,41,"CC(=O)NCC1CCCCN1C(=O)Nc1ccc(-c2noc(C(F)(F)F)n2)cc1 (stereo not drawn) [Example 48, 2-(acetamidomethyl)-N-(4-(5-(trifluoromethyl)-1,2,4-oxadiazol-3-yl)phenyl)piperidine-1-carboxamide]"
